This is an account of results in patent US20150232509A1, “SPIRO RING COMPOUNDS AS HEPATITIS C VIRUS (HCV) INHIBITORS” (SUNSHINE LAKE PHARMA CO., LTD., priority 2012, published 2015).

In one test the test system is HCV GT1a replicon cells. Description: HCV Replicon assay, GT1a replicon cells (Luciferase / NEO qPCR). Type of test: cell-based. Particulars: Hepatitis C virus, 72 hours incubation, read-out: EC50 against HCV 1a genotype. How it is done: (§1) An HCV Replicon assay was utilized in the present invention, and was prepared, developed and validated as described in Science, 1999, 285 (5424), 110-3 and J. Virol., 2003, 77 (5), 3007-19.
(§2) HCV GT1a, GT1b and GT2a replicon cells were used to test the currently described compound series as well as wild-type cells HCV 1b and resistant cells Y93H, L31F, P32L and 1302V. […]
(§3) The GT1a cells and GT1b cells were seeded into 96-well plates (8,000 cells in 125 μL/well) respectively; each compound was diluted to desired concentration using 5-fold serial dilutions protocol, 10 doses in duplicate, and added to wells with POD™ 810 Plate Assembler. The final concentration of DMSO was 0.5%; the plates were incubated in a CO2 incubator for 72 hours; after that, 40 μL of Luciferase assay substrate (Promega Bright-Glo) was added to each well, and detected by a chemiluminescence detection system (Topcount Microplate Scintillation and Luminescence Counter) 5 minutes later; data analysis.
(§4) The GT1a cells and GT1b cells were seeded into 96-well plates (8,000 cells in 125 μL/well) respectively; each compound was diluted to desired concentration using 5-fold serial dilutions protocol, 10 doses in duplicate, and added to wells with POD™ 810 Plate Assembler., the final concentration of DMSO was 0.5%; the cells were incubated in a CO2 incubator for 72 hours; quantitative PCR. • Sample preparation: the supernatant was removed, 100 μL of FCW buffer solution was added to each well, washed carefully and discarded the solution; 50 μL of lysate FCP was added to each well, the cells was lysed as PCR template and PCR template was diluted with DEPC water as sample template. • Quantitative PCR: preparation of reaction mixture according to PCR system; the reaction mixture was dispensed into a 384-well PCR reaction plate (specially for quantitative); and a standard template which was diluted in proportion was distributed into the plate; and the sample template was distributed into the plate; then the 384-well plate was sealed with closure plate membrane; the […] PCR machine was operated by procedures; data analysis. 3. Data Processing: the EC50 Values of Compounds were Analyzed by GraphPad Prism Software.
Background: In antiviral work, replicon cells carry a viral genome segment that copies itself.

For the next test, the system named is HCV GT1b replicon cells. Put plainly: HCV Replicon assay, GT1b replicon cells (Luciferase / NEO qPCR). Type of test: cell-based. Particulars: Hepatitis C virus, 72 hours incubation, read-out: EC50 against HCV 1b genotype. How it is done:
as §1, §2, §3, §4

On to `COC(=O)N[C@H](C(=O)N1CCC[C@H]1c1ncc(-c2ccc(-c3ccc(-c4ccc5nc([C@@H]6CCCN6C(=O)[C@@H](NC(=O)OC)C(C)C)[nH]c(=O)c5c4)c4c3C3(CCCC3)CC4)cc2)[nH]1)C(C)C` [Example 38], for which the figures for the EC50 in the test with HCV GT1a replicon cells and with HCV GT1b replicon cells were 0.066 nM and 0.009 nM, respectively.
For `C=C([C@@H](NC(=O)OC)C(C)C)N1CC(C)(C)C[C@H]1c1ncc(-c2ccc(-c3ccc(-c4cnc([C@@H]5CC(C)(C)CN5C(=O)[C@@H](NC(=O)OC)C(C)C)[nH]4)cc3)c3c2CCC32CCCC2)[nH]1` [Example 18] the same measures were 0.458 nM and 0.203 nM.
Taken in the same sequence, the figures for `COC(=O)N[C@H](C(=O)N1CCS[C@H]1c1ncc(-c2ccc(-c3ccc(-c4cnc([C@@H]5SCCN5C(=O)[C@@H](NC(=O)OC)C(C)C)[nH]4)c4c3C3(CCCC3)CC4)cc2)[nH]1)C(C)C` [Example 28] were 4.57 nM and 0.667 nM.
For `COC(=O)NC(C(=O)N1CCCC1c1nc2cc(-c3ccc(-c4ccc5[nH]c(C6CCCN6C(=O)C(NC(=O)OC)C(C)C)nc5c4)c4c3CCC43CCCC3)ccc2[nH]1)C(C)C` (centres unmarked) [Example 53] the same measures were 0.263 nM and 0.074 nM.
In the case of `COC(=O)N[C@H](C(=O)N1CCC[C@H]1c1ncc(-c2ccc3cc(-c4ccc(-c5cnc([C@@H]6CCCN6C(=O)[C@@H](NC(=O)OC)C(C)C)[nH]5)c5c4C4(CCCC4)CC5)ccc3c2)[nH]1)C(C)C` [Example 30], the EC50 (in general, the concentration needed to bring the measured effect to its halfway point) in the test with HCV GT1a replicon cells was determined as 3.2 nM; with HCV GT1b replicon cells, 0.074 nM.
For `COC(=O)N[C@H](C(=O)N1CCC[C@H]1c1ncc(-c2ccc(-c3ccc(-c4ccc5[nH]c([C@@H]6CCCN6C(=O)[C@@H](NC(=O)OC)C(C)C)nc5c4)c4c3CCC43CCCC3)cc2)[nH]1)C(C)C` [Example 4] the same measures were 0.085 nM and 0.029 nM.
`COC(=O)N[C@H](C(=O)N1CCC[C@H]1c1ncc(-c2ccc(-c3ccc(-c4ccc5[nH]c([C@@H]6CCCN6C(=O)[C@@H](NC(=O)OC)C(C)C)nc5c4)c4c3C3(CCCC3)CC4)cc2)[nH]1)C(C)C` [Example 3]: the values for the EC50 in the test with HCV GT1a replicon cells and in the test on HCV GT1b replicon cells were 0.097 nM and 0.032 nM, respectively.
In the case of `COC(=O)NC(C(=O)N1CCCC1c1ncc(-c2ccc(-c3ccc(-c4ccc5[nH]c(C6CCCN6C(=O)C(NC(=O)OC)C(C)C)nc5c4)c4c3CCC43CCCC3)cc2)[nH]1)C(C)C` (centres unmarked) [Example 56], the EC50 in the test on HCV GT1a replicon cells came out at 0.138 nM; in the test with HCV GT1b replicon cells it was 0.036 nM.
Turning to `COC(=O)N[C@H](C(=O)N1CCC[C@H]1c1ncc(-c2ccc(-c3ccc(-c4cnc([C@@H]5CCCN5C(=O)[C@@H](NC(=O)OC)C(C)C)[nH]4)c4c3C3(CCCO3)CCC4)cc2)[nH]1)C(C)C` (some centres unmarked) [Example 51], the EC50 worked out at 4.57 nM in the test on HCV GT1a replicon cells and 0.086 nM in the test on HCV GT1b replicon cells.
For `COC(=O)N[C@H](C(=O)N1CCC[C@H]1c1ncc(-c2ccc(-c3ccc(-c4ccc5nc([C@@H]6CCCN6C(=O)[C@@H](NC(=O)OC)C(C)C)[nH]c5c4)c4c3CCCC43CCC3)s2)[nH]1)C(C)C` [Example 41] the same measures were 0.876 nM and 0.043 nM.
Taken in the same sequence, the figures for `COC(=O)N[C@H](C(=O)N1C[C@@H](C)C[C@H]1c1nc(-c2ccc(-c3ccc(-c4ccc5nc([C@@H]6C[C@H](C)CN6C(=O)[C@@H](NC(=O)OC)C(C)C)[nH]c5c4)c4c3C3(CCCC3)CC4)cc2)c[nH]1)C(C)C` [Example 16] were 0.008 nM and 0.005 nM.
Regarding `COC(=O)N[C@H](C(=O)N1CCC[C@H]1c1ncc(-c2ccc(-c3ccc(-c4ccc5nc([C@@H]6CCCN6C(=O)[C@@H](NC(=O)OC)C(C)C)[nH]c5c4)c4c3CCC43CCCC3)c3cnoc23)[nH]1)C(C)C` [Example 46], the values for the EC50 with HCV GT1a replicon cells and with HCV GT1b replicon cells were 0.388 nM and 0.118 nM, respectively.
Regarding `COC(=O)N[C@@H](C)C(=O)N1CCC[C@H]1c1ncc(-c2ccc(-c3ccc(-c4cnc([C@@H]5CCCN5C(=O)[C@H](C)NC(=O)OC)[nH]4)c4c3C3(CCCC3)CC4)cc2)[nH]1` [Example 12], the EC50 came out at 0.856 nM with HCV GT1a replicon cells and 0.018 nM in the test on HCV GT1b replicon cells.
Regarding `CCC(C)[C@H](NC(=O)OC)C(=O)N1C2CC2C[C@H]1c1ncc(-c2ccc(-c3ccc(-c4ccc(-c5cnc([C@@H]6CC7CC7N6C(=O)[C@@H](NC(=O)OC)C(C)CC)[nH]5)cc4)c4c3CCC43CCCC3)cc2)[nH]1` (some centres unmarked) [Example 24], the EC50 in the test with HCV GT1a replicon cells turned out to be 2.69 nM; in the test on HCV GT1b replicon cells, 0.055 nM.
As for `COC(=O)N[C@H](C(=O)N1CCC[C@H]1c1nc2ccc(-c3ccc(-c4ccc5nc([C@@H]6CCCN6C(=O)[C@@H](NC(=O)OC)C(C)C)[nH]c5c4)c4c3CCC43CCC3)cc2[nH]1)C(C)C` [Example 40], the figures for the EC50 with HCV GT1a replicon cells and in the test on HCV GT1b replicon cells were 0.043 nM and 0.017 nM, respectively.
Taken in the same sequence, the figures for `COC(=O)N[C@H](C(=O)N1CCC[C@H]1c1ncc(-c2ccc(-c3ccc(-c4cnc([C@@H]5CCCN5C(=O)[C@@H](NC(=O)OC)C(C)C)[nH]4)c4c3C3(CCC4)CCN(C)C3)cc2)[nH]1)C(C)C` (some centres unmarked) [Example 50] were 0.875 nM and 0.096 nM.
Taken in the same sequence, the figures for `COC(=O)N[C@H](C(=O)N1CCC[C@H]1c1nc2cc(-c3ccc(-c4ccc5[nH]c([C@@H]6CCCN6C(=O)[C@@H](NC(=O)OC)C(C)C)nc5c4)c4c3CCC43CCCC3)ccc2[nH]1)C(C)C` [Example 1] were 0.102 nM and 0.041 nM.
As to `COC(=O)N[C@H](C(=O)N1CCC[C@H]1C(=O)Nc1ccc(-c2ccc(-c3ccc(NC(=O)[C@@H]4CCCN4C(=O)[C@@H](NC(=O)OC)C(C)C)cc3)c3c2CCC32CCCC2)cc1)C(C)C` [Example 20], the values for the EC50 in the test with HCV GT1a replicon cells and in the test on HCV GT1b replicon cells were 5.9 nM and 1.03 nM, respectively.
Taken in the same sequence, the figures for `COC(=O)N[C@H](C(=O)N1CCC[C@H]1c1ncc(-c2ccc(-c3sc(-c4cnc([C@@H]5CCCN5C(=O)[C@@H](NC(=O)OC)C(C)C)[nH]4)c4c3C3(CCCC3)CC4)cc2)[nH]1)C(C)C` [Example 47] were 3.57 nM and 0.687 nM.
For `COC(=O)N[C@H](C(=O)N1C[C@@H](C)C[C@H]1c1nc(-c2ccc(-c3ccc(-c4ccc(-c5c[nH]c([C@@H]6C[C@H](C)CN6C(=O)[C@@H](NC(=O)OC)C(C)C)n5)cc4)c4c3CCC43CCCC3)cc2)c[nH]1)C(C)C` [Example 21] the same measures were 4.88 nM and 0.98 nM.
For `COC(=O)N[C@H](C(=O)N1C2CCC(C2)[C@H]1c1ncc(-c2ccc(-c3ccc(-c4ccc5nc([C@@H]6C7CCC(C7)N6C(=O)[C@@H](NC(=O)OC)C(C)C)[nH]c5c4)c4c3C3(CCCC3)CC4)cc2)[nH]1)C(C)C` (some centres unmarked) [Example 33] the same measures were 0.09 nM and 0.039 nM.
`CC(C)[C@H](NC(=O)OC(C)(C)C)C(=O)N1CCC[C@H]1c1ncc(-c2ccc(C3CCC(c4cnc([C@@H]5CCCN5C(=O)[C@@H](NC(=O)OC(C)(C)C)C(C)C)[nH]4)CC3)c3c2CCC32CCCC2)[nH]1` (some centres unmarked) [Example 10]: the results for the EC50 in the test with HCV GT1a replicon cells and in the test on HCV GT1b replicon cells were 9.86 nM and 3.46 nM, respectively.
Taken in the same sequence, the figures for `CCC(C)[C@H](NC(=O)OC)C(=O)N1CCC[C@H]1c1nc2ccc(-c3ccc(-c4ccc(-c5cnc([C@@H]6CCCN6C(=O)[C@@H](NC(=O)OC)C(C)C)[nH]5)cc4)c4c3CCC43CCCC3)cc2[nH]1` (some centres unmarked) [Example 9] were 0.097 nM and 0.032 nM.
Take `COC(=O)N[C@H](C(=O)N1CCC[C@H]1c1ncc(-c2ccc(-c3ccc(-c4ccc5nc([C@@H]6CCCN6C(=O)[C@@H](NC(=O)OC)C(C)C)[nH]c5c4)cc3)c3c2CCC32CCCC2)[nH]1)C(C)C` [Example 29]: the EC50 was found to be 8.68 nM in the test with HCV GT1a replicon cells and 0.218 nM in the test with HCV GT1b replicon cells.
For `COC(=O)N[C@H](C(=O)N1C2CCC(C2)[C@H]1c1ncc(-c2ccc(-c3ccc(-c4cnc([C@@H]5C6CCC(C6)N5C(=O)[C@@H](NC(=O)OC)C(C)C)[nH]4)c4c3C3(CCCC3)CC4)cc2)[nH]1)C(C)C` (some centres unmarked) [Example 25] the same measures were 10.7 nM and 0.032 nM.
Turning to `COC(=O)N[C@H](C(=O)N1CCC[C@H]1c1ncc(-c2ccc(-c3ccc(-c4cnc([C@@H]5CCCN5C(=O)[C@@H](NC(=O)OC)C(C)C)[nH]4)c4c3CCC43CCCC3)cc2)[nH]1)C(C)C` [Example 5], the EC50 was determined as 2.49 nM with HCV GT1a replicon cells and 0.086 nM with HCV GT1b replicon cells.
For `CC(C)[C@H](NC(=O)N1CCOCC1)C(=O)N1CCC[C@H]1c1ncc(-c2ccc(N3CCC(c4cnc([C@@H]5CCCN5C(=O)[C@@H](NC(=O)N5CCOCC5)C(C)C)[nH]4)CC3)c3c2CCC32CCCC2)[nH]1` [Example 8] the same measures were 5.44 nM and 1.33 nM.
For `COC(=O)N[C@H](C(=O)N1CCC[C@H]1c1ncc(-c2ccc(-c3ccc(-c4cnc([C@@H]5CCCN5C(=O)[C@@H](NC(=O)OC)c5ccccc5)[nH]4)c4c3C3(CC4)CCN(C)CC3)cc2)[nH]1)c1ccccc1` [Example 43] the same measures were 7.28 nM and 0.148 nM.
